Test results: patent US20240010639A1, “TRIAZINE DIONE DERIVATIVE, PREPARATION METHOD THEREFOR AND APPLICATION THEREOF IN MEDICINE” (Jiangsu Hengrui Pharmaceuticals Co., Ltd., priority 2020, published 2024)
Like-named read-outs stand apart in the source and are kept apart here.

Test: Toxicokinetic evaluation of 14-day repeated intragastric administration to SD rats
Format: in vivo
Details: both sexes, SD, rat, plasma, po
Method: With SD rats as test animals, the plasma concentrations of the test compounds and the concentrations of the original forms of the compounds in the administration solutions were measured by LC/MS/MS at different time points after intragastric administration. The toxicokinetic performance of the compound disclosed herein was studied in SD rats and its toxicokinetic profile was evaluated.
24 SD rats, an equal number of males and females, evenly divided into 6 groups of 4, an equal number of males and females in each group, provided by Vital River Laboratory Animal Technology Co., Ltd.
A certain amount of the compound of Example 16 was measured out, and 15% PEG400 and 85% (10% TPGS+1% HPMC K100LV) were added to prepare a pale yellow homogenous suspension.
A certain amount of compound MYK-461 was measured out, and 0.5% MC was added to prepare a colorless clear solution.
The compound of Example 16 was intragastrically administered at doses of 5 mg/kg, 15 mg/kg and 30 mg/kg, at a volume of 10 mL/kg.
Compound MYK-461 was administered at doses of 0.5 mg/kg, 1.5 mg/kg and 3 mg/kg, at a volume of 10 mL/kg.
0.2-mL blood samples were collected from the orbit 0.5 h, 1.0 h, 2.0 h, 4.0 h, 8.0 h and 24.0 h after administration on day 1, and before administration and 0.5 h, 1.0 h, 2.0 h, 4.0 h, 8.0 hi, 24.0 h after administration on day 7 and day 14, placed into EDTA-K2 anticoagulation tubes, and centrifuged at 10,000 rpm for 1 min (4° C.), and plasma was isolated within 1 h and stored at −20° C. before analysis. The blood collection to centrifugation process was performed under ice bath conditions. Two hours after administration, feeding was resumed.
Determination of plasma concentrations in SD rats after intragastric administration of different concentrations of test compounds: 20 μL of SD rat plasma at each time point post-dose was mixed with 50 μL of an internal standard solution (internal standard for the compound of Example 16: 100 ng/mL verapamil; internal standard for compound MYK-461: 100 ng(mL camptothecin) and 200 μL of acetonitrile; the mixture was vortexed for 5 min and centrifuged at 3700 rpm for 10 min, and 1 μL of the supernatant was taken for LC/MS/MS analysis.

For `Cc1ccc(F)c([C@H](C)Nc2nc(=O)n(C3CCOCC3)c(=O)[nH]2)c1` [Example 16, (S)-6-((1-(2-Fluoro-5-methylphenyl)ethyl)amino)-3-(tetrahydro-2H-pyran-4-yl)-1,3,5-triazine-2,4(1H,3H)-dione], the AUC at 1 day (15 mg/kg, repeated intragastric 15 mg/kg, Day 1, read-out: Area under curve AUC) was 80400 ng·h/mL, the CL/F (15 mg/kg, repeated intragastric 15 mg/kg, Day 1, read-out: Clearance CL/F) was 3.08 mL/min/kg and the half-life at 1 day (15 mg/kg, repeated intragastric 15 mg/kg, Day 1, read-out: Half-life T1/2 (converted)) was 306 min. For the same molecule, the Cmax at 1 day (15 mg/kg, repeated intragastric 15 mg/kg, Day 1, read-out: Plasma concentration Cmax) was 16100 ng/mL, the MRT at 1 day (15 mg/kg, repeated intragastric 15 mg/kg, Day 1, read-out: Residence time MRT) was 5.4 h and the Vd/F (15 mg/kg, repeated intragastric 15 mg/kg, Day 7, read-out: Apparent volume of distribution Vz/F) was 2.13 L/kg. For the same molecule, the AUC (15 mg/kg, repeated intragastric 15 mg/kg, Day 7, read-out: Area under curve AUC) was 70.9 µg·h/mL, the CL/F (15 mg/kg, repeated intragastric 15 mg/kg, Day 7, read-out: Clearance CL/F) was 3.58 mL/min/kg and the half-life (15 mg/kg, repeated intragastric 15 mg/kg, Day 7, read-out: Half-life T1/2 (converted)) was 390 min. The Cmax (15 mg/kg, repeated intragastric 15 mg/kg, Day 7, read-out: Plasma concentration Cmax) was 16800 ng/mL, the MRT (15 mg/kg, repeated intragastric 15 mg/kg, Day 7, read-out: Residence time MRT) was 6.7 h and the Vd/F (15 mg/kg, repeated intragastric 15 mg/kg, Day 14, read-out: Apparent volume of distribution Vz/F) was 1.45 L/kg. It also gave an AUC (15 mg/kg, repeated intragastric 15 mg/kg, Day 14, read-out: Area under curve AUC) of 82.9 µg·h/mL, a CL/F (15 mg/kg, repeated intragastric 15 mg/kg, Day 14, read-out: Clearance CL/F) of 2.98 mL/min/kg and a half-life (15 mg/kg, repeated intragastric 15 mg/kg, Day 14, read-out: Half-life T1/2 (converted)) of 336 min. For the same molecule, the Cmax (15 mg/kg, repeated intragastric 15 mg/kg, Day 14, read-out: Plasma concentration Cmax) was 14100 ng/mL, the MRT (15 mg/kg, repeated intragastric 15 mg/kg, Day 14, read-out: Residence time MRT) was 6.4 h and the Vd/F (30 mg/kg, repeated intragastric 30 mg/kg, Day 1, read-out: Apparent volume of distribution Vz/F) was 2.26 L/kg. For the same molecule, the AUC (30 mg/kg, repeated intragastric 30 mg/kg, Day 1, read-out: Area under curve AUC) was 105 µg·h/mL, the CL/F (30 mg/kg, repeated intragastric 30 mg/kg, Day 1, read-out: Clearance CL/F) was 4.72 mL/min/kg and the half-life (30 mg/kg, repeated intragastric 30 mg/kg, Day 1, read-out: Half-life T1/2 (converted)) was 336 min. For the same molecule, the Cmax (30 mg/kg, repeated intragastric 30 mg/kg, Day 1, read-out: Plasma concentration Cmax) was 18700 ng/mL, the MRT (30 mg/kg, repeated intragastric 30 mg/kg, Day 1, read-out: Residence time MRT) was 6.4 h and the Vd/F (30 mg/kg, repeated intragastric 30 mg/kg, Day 7, read-out: Apparent volume of distribution Vz/F) was 2.15 L/kg. The AUC (30 mg/kg, repeated intragastric 30 mg/kg, Day 7, read-out: Area under curve AUC) was 121 µg·h/mL, the CL/F (30 mg/kg, repeated intragastric 30 mg/kg, Day 7, read-out: Clearance CL/F) was 4.14 mL/min/kg and the half-life (30 mg/kg, repeated intragastric 30 mg/kg, Day 7, read-out: Half-life T1/2 (converted)) was 354 min. For the same molecule, the Cmax (30 mg/kg, repeated intragastric 30 mg/kg, Day 7, read-out: Plasma concentration Cmax) was 21600 ng/mL, the MRT (30 mg/kg, repeated intragastric 30 mg/kg, Day 7, read-out: Residence time MRT) was 6.7 h and the Vd/F (30 mg/kg, repeated intragastric 30 mg/kg, Day 14, read-out: Apparent volume of distribution Vz/F) was 1.69 L/kg. The AUC (30 mg/kg, repeated intragastric 30 mg/kg, Day 14, read-out: Area under curve AUC) was 139 µg·h/mL, the CL/F (30 mg/kg, repeated intragastric 30 mg/kg, Day 14, read-out: Clearance CL/F) was 3.52 mL/min/kg and the half-life (30 mg/kg, repeated intragastric 30 mg/kg, Day 14, read-out: Half-life T1/2 (converted)) was 336 min. The Cmax (30 mg/kg, repeated intragastric 30 mg/kg, Day 14, read-out: Plasma concentration Cmax) was 20000 ng/mL and the MRT (30 mg/kg, repeated intragastric 30 mg/kg, Day 14, read-out: Residence time MRT) was 6.9 h.
